From ChEMBL document CHEMBL1201862, “PubChem BioAssay data set” (2004) come the findings set out here.

Each structure is given as a SMILES string.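 Step 1: Grow cells in 96-well plates. Step 2: Expose to compound for 48 hours at 5 concentrations. Step 3: Interpolate endpoints linearly; if unreached, use highest concentration. Abbreviation: GI50, concentration required for 50% inhibition of growth.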 The source made the active and inactive calls. Cut-off read from the data, not from the text of the source: active = GI50 up to about 1.1 µM and inactive = higher.

Common to all, as to assay: inhibition of tumour cell growth, NCI panel, 48 h
Test [1] relates to BT-549.
In test [2] the test system is CAKI-1.
Test [3] relates to DU-145.
Test [4] concerns EKVX.
For test [5], the system named is HCC 2998.
For test [6], the system named is HL-60.
Test [7] relates to HOP-92.
Test [8] relates to Hs-578T.
Test [9] has as its system NCI-H522.
For test [10], the system named is NCI/ADR-RES.
Test [11] has as its system OVCAR-4.
Test [12] deals with OVCAR-8.
For test [13], the system named is RPMI-8226.
The test system of test [14] is SF-268.
Test [15] has as its system SN12C.
The test system of test [16] is SW-620.
Test [17] deals with T47D.
The test system of test [18] is TK-10.
Test [19] has as its system UO-31.

For the compound `c1ccc(CNc2c3c(nc4ccccc24)CCC3)cc1`, the GI50 is 17.9 µM (inactive) in test [1]; 15.3 µM (inactive) in [2]; 21.5 µM (inactive) in [3]; 12.1 µM (inactive) in test [4]; 13.5 µM (inactive) in test [5]; 0.0303 µM (active) in [6]. Moreover, the GI50 in test [7] was 10.4 µM (inactive); in [8], 27.2 µM (inactive); in [9], 15.7 µM (inactive); in test [10], 14.2 µM (inactive); in test [11], 15 µM (inactive); in test [12], 14.1 µM (inactive). Further, the GI50 in test [13] is 10 µM (inactive); in test [14], 21.7 µM (inactive); in test [15], 16.4 µM (inactive); in test [16], 11.9 µM (inactive); in test [17], 12.7 µM (inactive); in test [18] it was 13 µM (inactive). For the same compound, the GI50 in test [19] was 11.4 µM (inactive).

In the case of `O=C1CC2SC(COCc3ccccc3)(CCN2Cc2ccccc2)C1` (stereo not drawn), the GI50 in test [1] was 51.1 µM (inactive); in [2] it was > 100 µM (inactive); in test [3], > 100 µM (inactive); in test [4], 64.3 µM (inactive); in test [5], > 100 µM (inactive); in test [6] it was 18 µM (inactive). The GI50 in test [7] was 45.6 µM (inactive); in test [8] it was > 100 µM (inactive); in test [9], 56.8 µM (inactive); in test [10] it was 65 µM (inactive); in test [11] it was 61.9 µM (inactive); in test [12], > 100 µM (inactive). In addition, the GI50 in test [13] is 30.2 µM (inactive); in test [14], > 100 µM (inactive); in [15], > 100 µM (inactive); in test [16], > 100 µM (inactive); in [17], 54.6 µM (inactive); in test [18], 19.9 µM (inactive). Besides, the GI50 in [19] is 34.7 µM (inactive).

Take `CC[C@H]1C=CCC[C@@]2(C[C@@H]3CC[C@@H]4[C@H](C(=O)OCCCCCCCCCCCCCCCC(=O)N(CCCN)C[C@@H](O)CCN)[C@]5(CCC[C@@H](C)O5)NC(=[N+]34)N2)O1`: the GI50 in [1] is 0.807 µM (active); in test [2], 0.0528 µM (active); in [3] it was 0.731 µM (active); in [4], 0.897 µM (active); in [5] it was 0.175 µM (active); in test [6], 0.318 µM (active). Besides, the GI50 in [7] was 0.158 µM (active); in test [8], 1.21 µM (inactive); in test [9] it was 0.174 µM (active); in test [10], 0.733 µM (active); in test [11], 0.474 µM (active); in test [12], 0.451 µM (active). Besides, the GI50 is 0.0855 µM (active) in test [13]; 0.544 µM (active) in test [14]; 0.766 µM (active) in test [15]; 0.352 µM (active) in test [16]; 0.824 µM (active) in test [17]; 1.44 µM (inactive) in test [18]. For the same compound, the GI50 in [19] was 0.337 µM (active).

In the case of `COC12C=CC(CC1)C(C)(C)C2OS(C)(=O)=O` (stereo not drawn), the GI50 in [1], in [2], in test [3], in test [4], in [5] and in test [6] was > 100 µM (inactive) each time. Moreover, the GI50 in test [7], in test [8], in test [9], in test [10], in [11] and in test [12] was > 100 µM (inactive) throughout. Also, the GI50 in [13], in test [14], in [15], in test [16], in test [17] and in test [18] was > 100 µM (inactive) each time. In [19], the GI50 is > 100 µM (inactive).

With `O=C(c1ccccc1)c1cc[n+](C2=C([N-]S(=O)(=O)c3ccccc3)C(=O)c3ccccc3C2=O)cc1`, the GI50 in [1] is 6.76 µM (inactive); in [2], 2.36 µM (inactive); in test [3] it was 13.9 µM (inactive); in test [4], 14 µM (inactive); in [5] it was 11.4 µM (inactive); in test [6] it was 2.15 µM (inactive). Also, the GI50 in test [7] was 8.61 µM (inactive); in test [8], 3.66 µM (inactive); in test [9], 4.74 µM (inactive); in [10] it was 9.38 µM (inactive); in [11], 13.1 µM (inactive); in [12] it was 13 µM (inactive). For the same compound, the GI50 in [13] is 3.3 µM (inactive); in [14], 11.5 µM (inactive); in test [15], 6.85 µM (inactive); in test [16] it was 10 µM (inactive); in [17], 3.33 µM (inactive); in test [18] it was 18.3 µM (inactive). In test [19], the GI50 was 11.7 µM (inactive).

Take `COc1ccc2c(c1)[C@@]13CCCC[C@H]1[C@@H](C2)N(C)CC3=O`: the GI50 in [1] was 17.4 µM (inactive); in [2] it was 28.3 µM (inactive); in [3], 21.8 µM (inactive); in [4], 18.5 µM (inactive); in test [5] it was 16.8 µM (inactive); in [6], 8.04 µM (inactive). Besides, the GI50 in [7] is 13.6 µM (inactive); in [8], 19.2 µM (inactive); in [9], 18.3 µM (inactive); in test [10] it was 26.9 µM (inactive); in [11], 16.1 µM (inactive); in test [12], 19.3 µM (inactive). Moreover, the GI50 in test [13] is 25.6 µM (inactive); in test [14] it was 17.2 µM (inactive); in test [15], 21.4 µM (inactive); in test [17], 17.5 µM (inactive); in test [18], 19 µM (inactive); in test [19], 18.7 µM (inactive).

For the compound `COC(C)(C)/C=C/c1[nH]c2ccccc2c1CC(=O)NCCc1cn(C(c2ccccc2)(c2ccccc2)c2ccccc2)cn1`, the GI50 is 7.87 µM (inactive) in test [1]; 15.9 µM (inactive) in test [2]; > 31.6 µM (inactive) in test [3]; 3.44 µM (inactive) in test [4]; 0.0272 µM (active) in test [5]; 2.92 µM (inactive) in test [6]. The GI50 was 5.33 µM (inactive) in [7]; 7.1 µM (inactive) in test [8]; 3.66 µM (inactive) in test [9]; 5.12 µM (inactive) in test [10]; 4.9 µM (inactive) in test [11]; 4.99 µM (inactive) in test [12]. Also, the GI50 is 2.39 µM (inactive) in [13]; 7.91 µM (inactive) in test [14]; 3.41 µM (inactive) in test [15]; 4.23 µM (inactive) in [16]; 2.71 µM (inactive) in test [17]; 5.46 µM (inactive) in test [18]. For the same compound, in test [19], the GI50 is 5.77 µM (inactive).

For `COC(=O)C1=C(C)NC(C)=C(C(=O)OC)C1c1ccc(NO)cc1`, the GI50 in test [1] is 13.2 µM (inactive); in test [2], 13 µM (inactive); in [3] it was 19.1 µM (inactive); in test [4], 19.5 µM (inactive); in test [5] it was 18.7 µM (inactive); in test [6], 1.53 µM (inactive). The GI50 was 2.68 µM (inactive) in test [7]; 10.8 µM (inactive) in [8]; 0.891 µM (active) in test [9]; 18.8 µM (inactive) in test [10]; 10.6 µM (inactive) in test [11]; 10.2 µM (inactive) in [12]. Further, the GI50 in [13] was 1.73 µM (inactive); in test [14], 19 µM (inactive); in test [15] it was 18.7 µM (inactive); in test [16] it was 4.09 µM (inactive); in test [17] it was 7.23 µM (inactive); in [18], 16.5 µM (inactive). Moreover, the GI50 in test [19] is 11.3 µM (inactive).

On to `Clc1cc2nc(C3CCCCO3)[nH]c2cc1Cl` (stereo not drawn), for which the GI50 in [1] is 11.1 µM (inactive); in [2], 29.1 µM (inactive); in test [3] it was 48.6 µM (inactive); in test [4], 48.1 µM (inactive); in test [5], 38 µM (inactive); in test [6], 4.78 µM (inactive). In addition, the GI50 was 35.7 µM (inactive) in test [7]; 7.29 µM (inactive) in [8]; 2.59 µM (inactive) in [9]; 12.1 µM (inactive) in test [10]; 34.4 µM (inactive) in test [11]; 17.7 µM (inactive) in test [12]. The GI50 in test [13] is 12.8 µM (inactive); in test [14], 27.9 µM (inactive); in test [15] it was 38.9 µM (inactive); in test [16], 19.6 µM (inactive); in [17], 14.3 µM (inactive); in test [18] it was > 77.3 µM (inactive). In addition, the GI50 in test [19] is 11.1 µM (inactive).

Regarding `Clc1ccc(-c2nnc(-c3c(Cl)c(Cl)c(Cl)c(Cl)c3-c3nc4ccccc4[nH]3)o2)cc1`, the GI50 in [1] is 70.1 µM (inactive); in test [2], 56.1 µM (inactive); in test [3], 78.2 µM (inactive); in test [4], 54.3 µM (inactive); in test [5], 59 µM (inactive); in test [6], > 100 µM (inactive). In addition, the GI50 in [7] is 31.7 µM (inactive); in test [8], > 100 µM (inactive); in [9] it was 47.9 µM (inactive); in test [10], 47.4 µM (inactive); in [11] it was 84.9 µM (inactive); in test [12], 48.2 µM (inactive). In addition, the GI50 in [13] was 31.8 µM (inactive); in test [14] it was > 100 µM (inactive); in test [15], 46.8 µM (inactive); in test [16] it was > 100 µM (inactive); in test [17], 21 µM (inactive); in [19], 42.7 µM (inactive).
